Earlier results on two compounds are cited in publication PMC10215804, “Exploring Alternative Pathways to Target Bacterial Type II Topoisomerases Using NBTI Antibacterials: Beyond Halogen-Bonding Interactions” (Antibiotics, 2023).

The structures appear in SMILES notation. In brackets after ≈: the same amount, converted by molar mass.

One may read the IC50 as the concentration needed to halve the response being measured.

Data set [1] deals with MRSA(QA-12.1). Also noted: method as in PMID 35970069. The conditions noted are these: cited from earlier work.
Data set [2] deals with E. coli ESBL QA-11.3. Set-up: method as in PMID 35970069. The conditions noted are these: cited from earlier work.
Data set [3] relates to P. aeruginosa RDK 184. The settings on record: cited from earlier work.
For data set [4], the target named is T1, S. aureus topoIV (Staphylococcus aureus, UniProt P0C1U9).
T1 construct: purchased Inspiralis (Norwich, UK)
The settings on record: relaxation inhibition; cited from earlier work.

Data set [5] deals with S. aureus (ATCC 29213). The settings on record: cited from earlier work.
Data set [6] addresses T2, human topoisomerase IIα (Homo sapiens, UniProt P11388).
T2 construct: purchased Inspiralis (Norwich, UK)
The settings on record: residual activity at 100 µM compound; cited from earlier work.

Data set [7] has as its system VRE. The settings on record: cited from earlier work.
Data set [8] deals with E. coli (ATCC 25922). The settings on record: cited from earlier work.
Data set [9] concerns A. baumannii. Set-up: method as in PMID 35970069. The settings on record: cited from earlier work.
Data set [10] has as its system E. faecalis RDK 057. The conditions noted are these: cited from earlier work.
The subject of data set [11] is MRSA (QA-11.2). Set-up: method as in PMID 35970069. The settings on record: cited from earlier work.
In data set [12] the target is T3, E. coli topoIV (Escherichia coli, UniProt P0AFI2).
T3 construct: purchased Inspiralis (Norwich, UK)
The conditions noted are these: relaxation inhibition; cited from earlier work.

The test system of data set [13] is E. coli N43 (CGSC# 5583). The conditions noted are these: AcrA knockout; cited from earlier work.
The test system of data set [14] is K. pneumoniae. Also noted: method as in PMID 35970069. The conditions noted are these: cited from earlier work.
For data set [15], the target named is T4, E. coli DNA gyrase (Escherichia coli, UniProt P0AES4).
T4 construct: purchased Inspiralis (Norwich, UK)
The settings on record: supercoiling inhibition; cited from earlier work.

Data set [16] has as its system E. coli D22. The conditions noted are these: lpxC mutation; cited from earlier work.
Data set [17] concerns the target T5, S. aureus DNA gyrase (Staphylococcus aureus, UniProt P20831).
T5 construct: purchased Inspiralis (Norwich, UK)
The conditions noted are these: supercoiling inhibition; cited from earlier work.

Data set [18] deals with MRSA (QA-11.7). The conditions noted are these: cited from earlier work.

T3 sequence (P20083 whole entry): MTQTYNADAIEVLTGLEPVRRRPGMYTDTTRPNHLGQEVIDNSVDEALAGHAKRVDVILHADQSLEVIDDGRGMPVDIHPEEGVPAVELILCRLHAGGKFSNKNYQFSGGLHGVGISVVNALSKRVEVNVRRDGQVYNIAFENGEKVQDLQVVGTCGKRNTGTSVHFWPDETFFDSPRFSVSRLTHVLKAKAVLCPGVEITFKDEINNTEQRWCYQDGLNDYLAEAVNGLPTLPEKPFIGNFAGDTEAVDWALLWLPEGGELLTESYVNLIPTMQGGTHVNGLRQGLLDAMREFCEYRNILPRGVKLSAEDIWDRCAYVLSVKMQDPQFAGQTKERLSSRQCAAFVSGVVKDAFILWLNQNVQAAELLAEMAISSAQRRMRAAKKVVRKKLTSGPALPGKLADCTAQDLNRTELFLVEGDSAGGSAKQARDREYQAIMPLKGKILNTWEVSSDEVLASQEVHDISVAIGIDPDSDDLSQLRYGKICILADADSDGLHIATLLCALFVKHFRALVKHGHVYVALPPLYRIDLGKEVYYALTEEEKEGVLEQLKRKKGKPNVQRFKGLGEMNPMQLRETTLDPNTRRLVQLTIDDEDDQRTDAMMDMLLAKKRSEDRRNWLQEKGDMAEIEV
T3 sequence (P0AFI2 whole entry): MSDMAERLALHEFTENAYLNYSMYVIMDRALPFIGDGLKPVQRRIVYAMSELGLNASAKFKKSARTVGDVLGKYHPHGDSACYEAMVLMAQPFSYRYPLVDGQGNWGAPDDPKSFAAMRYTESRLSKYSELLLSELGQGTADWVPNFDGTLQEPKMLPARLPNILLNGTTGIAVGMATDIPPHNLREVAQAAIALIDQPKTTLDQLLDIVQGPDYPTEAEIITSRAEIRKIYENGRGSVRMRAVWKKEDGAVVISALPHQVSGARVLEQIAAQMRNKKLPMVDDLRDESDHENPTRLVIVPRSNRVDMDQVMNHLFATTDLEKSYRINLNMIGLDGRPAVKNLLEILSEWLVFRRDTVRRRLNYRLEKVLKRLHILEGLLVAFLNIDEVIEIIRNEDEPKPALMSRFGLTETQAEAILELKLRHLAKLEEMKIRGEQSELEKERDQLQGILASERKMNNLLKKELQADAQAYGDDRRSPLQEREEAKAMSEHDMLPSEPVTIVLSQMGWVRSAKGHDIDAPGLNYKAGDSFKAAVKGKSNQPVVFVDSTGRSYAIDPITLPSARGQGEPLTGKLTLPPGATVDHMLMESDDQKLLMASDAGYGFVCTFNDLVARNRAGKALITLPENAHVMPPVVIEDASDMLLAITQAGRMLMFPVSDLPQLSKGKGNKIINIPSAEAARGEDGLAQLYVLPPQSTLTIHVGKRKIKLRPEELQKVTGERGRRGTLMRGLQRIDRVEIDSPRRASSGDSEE
T4 sequence (P0AES4 whole entry): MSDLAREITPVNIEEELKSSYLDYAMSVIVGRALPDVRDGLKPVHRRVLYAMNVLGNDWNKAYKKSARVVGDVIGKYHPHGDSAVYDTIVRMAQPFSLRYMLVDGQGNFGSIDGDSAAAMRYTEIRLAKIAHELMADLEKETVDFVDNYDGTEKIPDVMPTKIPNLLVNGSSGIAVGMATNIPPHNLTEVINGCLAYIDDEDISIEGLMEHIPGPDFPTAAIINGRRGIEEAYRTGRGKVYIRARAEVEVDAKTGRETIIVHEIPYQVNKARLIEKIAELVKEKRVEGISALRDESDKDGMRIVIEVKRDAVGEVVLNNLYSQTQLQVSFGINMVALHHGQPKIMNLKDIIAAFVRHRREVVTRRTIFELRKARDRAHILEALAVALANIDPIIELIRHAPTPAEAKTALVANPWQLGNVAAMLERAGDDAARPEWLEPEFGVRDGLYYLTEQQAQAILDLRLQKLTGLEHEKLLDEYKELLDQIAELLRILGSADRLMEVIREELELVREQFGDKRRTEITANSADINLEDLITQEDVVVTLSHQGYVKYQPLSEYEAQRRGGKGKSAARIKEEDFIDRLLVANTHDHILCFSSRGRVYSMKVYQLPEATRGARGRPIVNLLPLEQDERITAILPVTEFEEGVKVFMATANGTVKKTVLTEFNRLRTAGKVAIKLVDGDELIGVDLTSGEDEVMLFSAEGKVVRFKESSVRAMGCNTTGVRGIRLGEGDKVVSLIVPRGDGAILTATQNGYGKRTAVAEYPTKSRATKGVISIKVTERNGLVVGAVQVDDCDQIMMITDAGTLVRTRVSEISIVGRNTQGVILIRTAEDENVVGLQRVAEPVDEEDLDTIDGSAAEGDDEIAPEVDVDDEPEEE
T2 sequence (P11388 whole entry): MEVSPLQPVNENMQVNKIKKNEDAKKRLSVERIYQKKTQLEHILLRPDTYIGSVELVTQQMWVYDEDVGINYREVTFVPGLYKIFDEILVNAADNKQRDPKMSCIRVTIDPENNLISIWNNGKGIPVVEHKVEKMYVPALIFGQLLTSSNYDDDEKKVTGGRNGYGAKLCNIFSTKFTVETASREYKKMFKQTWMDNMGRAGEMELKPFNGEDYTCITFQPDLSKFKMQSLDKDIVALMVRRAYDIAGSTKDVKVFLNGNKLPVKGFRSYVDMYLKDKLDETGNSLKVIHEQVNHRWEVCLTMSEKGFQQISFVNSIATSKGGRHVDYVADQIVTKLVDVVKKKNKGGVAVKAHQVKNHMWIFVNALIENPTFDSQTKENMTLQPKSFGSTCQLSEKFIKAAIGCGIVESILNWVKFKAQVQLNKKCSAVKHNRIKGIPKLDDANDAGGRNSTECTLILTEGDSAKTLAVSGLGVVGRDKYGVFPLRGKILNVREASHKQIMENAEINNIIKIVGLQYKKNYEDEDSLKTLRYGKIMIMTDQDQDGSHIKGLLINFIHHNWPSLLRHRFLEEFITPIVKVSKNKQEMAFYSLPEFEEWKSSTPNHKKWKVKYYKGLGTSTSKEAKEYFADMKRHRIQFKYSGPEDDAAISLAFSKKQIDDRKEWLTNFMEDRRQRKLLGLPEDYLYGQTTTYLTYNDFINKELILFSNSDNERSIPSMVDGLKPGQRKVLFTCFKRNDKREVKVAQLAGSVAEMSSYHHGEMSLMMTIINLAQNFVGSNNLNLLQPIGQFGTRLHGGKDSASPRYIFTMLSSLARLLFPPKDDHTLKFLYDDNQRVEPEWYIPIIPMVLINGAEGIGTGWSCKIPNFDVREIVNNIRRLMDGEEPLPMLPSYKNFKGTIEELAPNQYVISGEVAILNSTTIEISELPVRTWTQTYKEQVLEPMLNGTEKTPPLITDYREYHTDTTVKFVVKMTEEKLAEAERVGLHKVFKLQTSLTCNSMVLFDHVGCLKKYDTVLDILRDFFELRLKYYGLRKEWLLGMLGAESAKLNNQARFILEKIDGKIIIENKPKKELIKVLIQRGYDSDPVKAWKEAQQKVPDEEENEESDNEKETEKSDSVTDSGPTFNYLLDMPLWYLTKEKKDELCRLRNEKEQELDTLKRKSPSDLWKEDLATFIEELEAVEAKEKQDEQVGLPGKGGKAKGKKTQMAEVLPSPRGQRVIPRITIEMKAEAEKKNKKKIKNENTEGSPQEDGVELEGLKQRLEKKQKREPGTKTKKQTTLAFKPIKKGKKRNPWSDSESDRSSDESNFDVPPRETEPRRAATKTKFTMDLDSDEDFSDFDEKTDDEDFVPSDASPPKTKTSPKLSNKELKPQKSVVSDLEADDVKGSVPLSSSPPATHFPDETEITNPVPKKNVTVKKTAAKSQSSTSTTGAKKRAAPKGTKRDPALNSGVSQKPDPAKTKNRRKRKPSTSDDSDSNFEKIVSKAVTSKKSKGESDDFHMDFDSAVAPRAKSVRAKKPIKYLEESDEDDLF

Regarding `COc1ccc2nccc(OCC3CCC(NCc4ccc(Br)cc4)CC3)c2n1` (stereo not drawn) [Compound 2], the “MIC MRSA(QA-12.1)” value in data set [1] is reported as 0.25 µg/mL (≈ 0.548 µM). Moreover, the “MIC E. coli ESBL QA-11.3” value in data set [2] is 128 µg/mL (≈ 280 µM). In data set [3], the “MIC P. aeruginosa RDK 184” value is recorded as 32 µg/mL (≈ 70.1 µM). Besides, the concentration for half-maximal inhibition (IC50) is more than 100000 nM in [4], 495 ± 184 nM in data set [12], 4800 ± 774 nM in data set [15] and 372 ± 2 nM in data set [17]. In [5], the “MIC S. aureus (ATCC 29213)” value is 0.125 µg/mL (≈ 0.274 µM). Moreover, the “Human TopoIIα (% RA at 100 µM)” value in data set [6] is recorded as 106 ± 3%. The “MIC VRE” value in data set [7] is reported as 1 µg/mL (≈ 2.19 µM). Also, in data set [8], the “MIC E. coli (ATCC 25922)” value is given as 64 µg/mL (≈ 140 µM). For the same compound, in data set [9], the “MIC A. baumannii” value is given as 128 µg/mL (≈ 280 µM). Also, the “MIC E. faecalis RDK 057” value in data set [10] is 1 µg/mL (≈ 2.19 µM). In data set [11], the “MIC MRSA (QA-11.2)” value is reported as 0.5 µg/mL (≈ 1.1 µM). Besides, the “MIC E. coli N43 (CGSC# 5583)” value in [13] is 1 µg/mL (≈ 2.19 µM). Further, in data set [14], the “MIC K. pneumoniae” value was 128 µg/mL (≈ 280 µM). In data set [16], the “MIC E. coli D22” value is on record as 8 µg/mL (≈ 17.5 µM). Also, in data set [18], the “MIC MRSA (QA-11.7)” value is recorded as 0.25 µg/mL (≈ 0.548 µM).

On to `COc1ccc2nccc(C(O)CC3CC[C@H](NCc4ccc(Br)cc4)CO3)c2n1` (stereo partly drawn) [Compound 4], for which the “MIC MRSA(QA-12.1)” value in [1] is listed as 0.016 µg/mL (≈ 0.0339 µM). Also, the “MIC E. coli ESBL QA-11.3” value in data set [2] is recorded as more than 128 µg/mL. Besides, the “MIC P. aeruginosa RDK 184” value in data set [3] is 128 µg/mL (≈ 271 µM). Further, the IC50 is more than 100000 nM in [4], 52 ± 3 nM in [12], 1570 ± 404 nM in [15] and 65 ± 2 nM in [17]. Further, the “MIC S. aureus (ATCC 29213)” value in data set [5] is recorded as 0.016 µg/mL (≈ 0.0339 µM). Also, the “Human TopoIIα (% RA at 100 µM)” value in data set [6] is reported as 106 ± 0%. Also, the “MIC VRE” value in data set [7] is listed as 0.032 µg/mL (≈ 0.0677 µM). The “MIC E. coli (ATCC 25922)” value in [8] is recorded as 16 µg/mL (≈ 33.9 µM). Also, the “MIC A. baumannii” value in [9] is listed as more than 128 µg/mL. In [10], the “MIC E. faecalis RDK 057” value was 0.5 µg/mL (≈ 1.06 µM). The “MIC MRSA (QA-11.2)” value in data set [11] is reported as 0.031 µg/mL (≈ 0.0656 µM). For the same compound, in [13], the “MIC E. coli N43 (CGSC# 5583)” value is recorded as 0.25 µg/mL (≈ 0.529 µM). For the same compound, the “MIC K. pneumoniae” value in [14] is 128 µg/mL (≈ 271 µM). In addition, in data set [16], the “MIC E. coli D22” value is given as 1 µg/mL (≈ 2.12 µM). Besides, in data set [18], the “MIC MRSA (QA-11.7)” value was 0.016 µg/mL (≈ 0.0339 µM).
